{
  "source": "patent US12048693B2",
  "about": "“Substituted halo-quinoline derivatives, method of preparation and applications thereof” (Institut National de la Sante et de la Recherche Medicale …, priority 2018, dated 2024)",
  "key": {"melanoma cell line A375": {"tested_on": "melanoma cell line A375", "assay": "In vitro dose response study on A375 proliferation", "type": "cell-based", "details": "Homo sapiens, A-375, 96 h, graded concentration", "description": "The melanoma cell line A375 was treated during 96 h with graded concentration of compounds 42 and 43. At the end of the culture period, the cell concentration was determined."}, "A375": {"tested_on": "A375", "assay": "Cancer cell viability, trypan blue exclusion assay", "type": "cell-based", "details": "Homo sapiens, A-375, normalized to DMSO-treated control", "description": "(§1) The tested cancer cells are the following: human melanoma cells (A375), lung carcinoma cells (A549), prostate cancer cells (PC3), colon adenocarcinoma (HT29), pancreas carcinoma (MiaPaca 2) and breast carcinoma (MCF-7).\nCells were counted using a Malassez chamber. The average and standard deviation were calculated from triplicate experiments. Antiproliferative effects were evaluated by trypan blue exclusion assay. […] Cells were washed with PBS and detached by trypsinization, collected and colored by trypan blue.\n(§2) As a comparison, cell viability was also determined and calculated as follow: Viability (%)=100−[(dead cell number/total cells)*100]."}, "A549": {"tested_on": "A549", "assay": "Cancer cell viability, trypan blue exclusion assay", "type": "cell-based", "details": "Homo sapiens, normalized to DMSO-treated control", "description": "(§3) Cancer Cell Proliferation Assay (A375, A549, PC3, HT-29, MiaPaca-2 and MCF-7)\nas §1\n(§4) Cells were counted using a Malassez chamber. The average and standard deviation were calculated from triplicate experiments. Antiproliferative effects were evaluated by trypan blue exclusion assay. Briefly, cells were seeded into 12-well plate and grown in media supplemented with indicated compound at 1 or 10 μM for 48 h or 96 h. Cells were washed with PBS and detached by trypsinization, collected and colored by trypan blue.\nas §2"}, "PC3 [1]": {"tested_on": "PC3", "assay": "Cancer cell viability, trypan blue exclusion assay", "type": "cell-based", "details": "Homo sapiens, PC-3, normalized to DMSO-treated control", "description": "as §3, §1, §4, §2"}, "MiaPaca-2": {"tested_on": "MiaPaca-2", "assay": "Cancer cell viability, trypan blue exclusion assay", "type": "cell-based", "details": "Homo sapiens, MIA PaCa-2, normalized to DMSO-treated control", "description": "as §3, §1, §4, §2"}, "HT29": {"tested_on": "HT29", "assay": "Cancer cell viability, trypan blue exclusion assay", "type": "cell-based", "details": "Homo sapiens, HT-29, normalized to DMSO-treated control", "description": "as §3, §1, §4, §2"}, "MCF-7": {"tested_on": "MCF-7", "assay": "Cancer cell viability, trypan blue exclusion assay", "type": "cell-based", "details": "Homo sapiens, MCF7, normalized to DMSO-treated control", "description": "as §3, §1, §4, §2"}, "[2]": {"assay": "Melanocyte viability assay (MHN)", "type": "cell-based", "details": "human, MHN melanocytes, 10 μM for 96 h, normalized to DMSO-treated control, read-out: Heathly Cell Viability MHN", "description": "Melanocyte Viability Assay (MHN)\nCell viability effects were evaluated by trypan blue exclusion assay. Briefly, cells were seeded into 12-well plate and grown in media supplemented with indicated compound at 10 μM for 96 h. Cells were washed with PBS and detached by trypsinization, collected and colored by trypan blue. Dead and living cells were counted and cell viability was calculated as follow: Viability (%)=100−[(dead cell number/total cells)*100]."}, "PC3 [3]": {"tested_on": "PC3", "assay": "Cancer cell proliferation assay", "type": "cell-based, human", "details": "10 μM, normalized to DMSO-treated control", "description": "as §3, §1, §4\nDead and living cells were counted and proliferation was calculated as follow: Proliferation (%)=[(treated cell number/untreated cells number)*100]."}},
  "data": [
    {"smiles": "COCCOc1ccc(Nc2ccnc3cc(Cl)ccc23)cc1", "note": "[Compound 42, 7-chloro-N-(4-(2-methoxyethoxy)phenyl)quinolin-4-amine]", "values": [
      {"measurement": "IC50", "setting": "melanoma cell line A375", "value": 0.42, "unit": "µM"},
      {"measurement": "viability at 10 µM", "setting": "A375", "value": 99.3, "unit": "%"},
      {"measurement": "viability at 10 µM", "setting": "A549", "value": 99.7, "unit": "%"},
      {"measurement": "viability at 10 µM", "setting": "PC3 [1]", "value": 98.9, "unit": "%"},
      {"measurement": "viability at 10 µM", "setting": "MiaPaca-2", "value": 100, "unit": "%"},
      {"measurement": "viability at 10 µM", "setting": "HT29", "value": 97.3, "unit": "%"},
      {"measurement": "viability at 10 µM", "setting": "MCF-7", "value": 97.2, "unit": "%"},
      {"measurement": "viability at 96 h, 10 μM", "setting": "[2]", "value": 99, "unit": "%"}
    ]},
    {"smiles": "COc1ccc(Nc2ccnc3cc(Cl)ccc23)cc1O", "note": "[Compound 43, 7-chloro-N-(3-(hydroxy)-4-(methoxy)phenyl)quinolin-4-amine]", "values": [
      {"measurement": "IC50", "setting": "melanoma cell line A375", "value": 1.83, "unit": "µM"},
      {"measurement": "Cancer Cell Proliferation", "setting": "PC3 [3]", "value": 55.0, "unit": "%"},
      {"measurement": "viability at 10 µM", "setting": "A549", "value": 99.8, "unit": "%"},
      {"measurement": "viability at 10 µM", "setting": "PC3 [1]", "value": 94.6, "unit": "%"},
      {"measurement": "viability at 10 µM", "setting": "MiaPaca-2", "value": 97.6, "unit": "%"},
      {"measurement": "viability at 10 µM", "setting": "HT29", "value": 85.8, "unit": "%"},
      {"measurement": "viability at 10 µM", "setting": "MCF-7", "value": 99.6, "unit": "%"}
    ]}
  ]
}
